target: T1, PKC epsilon (Homo sapiens, UniProt Q02156); test: Biochemical assay for PKC epsilon (fluorescence polarization, Protein Kinase C Assay Kit, Red); details: Table 2, compounds of Formula XIII; read-out: IC50 μM PKCε
T1 construct: purchased Invitrogen P2282
T1 sequence (Q02156 1-737): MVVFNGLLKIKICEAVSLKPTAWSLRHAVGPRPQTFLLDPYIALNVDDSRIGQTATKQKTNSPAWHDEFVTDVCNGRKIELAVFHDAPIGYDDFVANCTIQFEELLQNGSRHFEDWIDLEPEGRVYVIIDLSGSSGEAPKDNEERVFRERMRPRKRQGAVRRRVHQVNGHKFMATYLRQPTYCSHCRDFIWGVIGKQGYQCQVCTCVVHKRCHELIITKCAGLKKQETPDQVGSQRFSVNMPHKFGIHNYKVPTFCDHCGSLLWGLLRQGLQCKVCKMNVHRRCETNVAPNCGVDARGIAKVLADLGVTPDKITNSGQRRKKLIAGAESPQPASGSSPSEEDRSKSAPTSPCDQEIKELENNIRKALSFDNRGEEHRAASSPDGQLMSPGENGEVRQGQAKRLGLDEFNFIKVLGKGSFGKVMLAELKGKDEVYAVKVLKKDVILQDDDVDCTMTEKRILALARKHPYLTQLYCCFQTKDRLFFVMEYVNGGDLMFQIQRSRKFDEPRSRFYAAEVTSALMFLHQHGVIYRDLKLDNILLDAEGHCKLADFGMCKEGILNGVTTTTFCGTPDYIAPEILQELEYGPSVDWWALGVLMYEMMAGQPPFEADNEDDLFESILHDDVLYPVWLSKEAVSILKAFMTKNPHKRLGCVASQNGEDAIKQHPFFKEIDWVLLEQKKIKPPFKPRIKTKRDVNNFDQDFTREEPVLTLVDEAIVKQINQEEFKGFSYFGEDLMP
Method: The compounds were tested for inhibition of PKC epsilon.
The inhibition assays were performed with a fluorescence polarization (FP) assay using the commercially available Protein Kinase C Assay Kit, Red, from Invitrogen (Product ID. No. P2941), essentially in accordance with the protocol supplied by the manufacturer. […] The isozyme PKC epsilon was also obtained from Invitrogen (Product ID No. P2282).
Staurosporine was used as a positive control (2 μM).
To perform the assay, 2 μl of a solution of the compound to be tested in DMSO (at each concentration) was added to 6 μl of a solution of the enzyme in 10 mM HEPES, 5 mM dithiotreitol, 0.1% Triton X-100, pH 7.4. The final concentration of the enzymes was 10 ng/ml.
After incubating for 30 minutes at room temperature, 4 μl of a mixture of ATP and the protein substrate in 60 mM HEPES (pH7.4), 15 mM MgCl2, 0.3 mM CaCl2, 0.06% NP40 was added.
After incubating for 80 minutes at room temperature, 3 μl of a mix solution of 500 mM EDTA (stop solution) and the Rhodamine-based PKC Red Tracer (from the Protein Kinase C Assay Kit) in BGG/phosphate buffer (pH7.4) with 0.02% NaN3 and 0.1% Triton X-100 was added and 5 μl of a the Anti-Phosphoserine antibody (also from the Protein Kinase C Assay Kit) in BGG/phosphate buffer (pH7.4) with 0.02% NaN3.
The results were fitted to a curve using the XL-Fit algorithm and […] were calculated for each fitted curve, again using the XL-Fit algorithm.

Row | IC50 [µM] | Compound
1 | 0.05 to 0.5 | NC(CNC(=O)Cc1ccccc1)c1ccc(C(=O)Nc2ccncc2)cc1 (stereo not drawn) [Compound 328, 4-(1-Amino-2-phenylacetylamino-ethyl)-N-pyridin-4-yl-benzamide]
2 | 0.05 to 0.5 | NC(CNC(=O)Cc1ccc(Cl)c(Cl)c1)c1ccc(C(=O)Nc2ccncc2)cc1 (stereo not drawn) [Compound 329, 4-{1-Amino-2-[2-(3,4-dichloro-phenyl)-acetylamino]-ethyl}-N-pyridin-4-yl-benzamide]
3 | 0.05 to 0.5 | NC(CNC(=O)Cc1ccc(F)c(Cl)c1)c1ccc(C(=O)Nc2ccncc2)cc1 (stereo not drawn) [Compound 330, 4-{1-Amino-2-[2-(3-chloro-4-fluoro-phenyl)-acetylamino]-ethyl}-N-pyridin-4-yl-benzamide]
4 | 0.5 to 5 | NC(CNC(=O)Cc1cc(F)ccc1F)c1ccc(C(=O)Nc2ccncc2)cc1 (stereo not drawn) [Compound 331, 4-{1-Amino-2-[2-(2,5-difluoro-phenyl)-acetylamino]-ethyl}-N-pyridin-4-yl-benzamide]
5 | 0.05 to 0.5 | NC(CNC(=O)Cc1ccc(F)cc1Cl)c1ccc(C(=O)Nc2ccncc2)cc1 (stereo not drawn) [Compound 332, 4-{1-Amino-2-[2-(2-chloro-4-fluoro-phenyl)-acetylamino]-ethyl}-N-pyridin-4-yl-benzamide]
6 | 0.05 to 0.5 | NC(CNC(=O)Cc1ccc(Cl)cc1F)c1ccc(C(=O)Nc2ccncc2)cc1 (stereo not drawn) [Compound 333, 4-{1-Amino-2-[2-(4-chloro-2-fluoro-phenyl)-acetylamino]-ethyl}-N-pyridin-4-yl-benzamide]
7 | < 0.05 | NC(CNC(=O)C1(c2ccc(F)cc2)CCCC1)c1ccc(C(=O)Nc2ccncc2)cc1 (stereo not drawn) [Compound 336, 4-(1-Amino-2-{[1-(4-fluoro-phenyl)-cyclopentanecarbonyl]-amino}-ethyl)-N-pyridin-4-yl-benzamide]
8 | 0.05 to 0.5 | NC(CNC(=O)C1(c2cccc(F)c2)CCCC1)c1ccc(C(=O)Nc2ccncc2)cc1 (stereo not drawn) [Compound 341, 4-(1-Amino-2-{[1-(3-fluoro-phenyl)-cyclopentanecarbonyl]-amino}-ethyl)-N-pyridin-4-yl-benzamide]
9 | < 0.05 | NC(CNC(=O)C1(c2ccc(F)cc2Cl)CCCC1)c1ccc(C(=O)Nc2ccncc2)cc1 (stereo not drawn) [Compound 342, 4-(1-Amino-2-{[1-(2-chloro-4-fluoro-phenyl)-cyclopentanecarbonyl]-amino}-ethyl)-N-pyridin-4-yl-benzamide]
10 | 0.05 to 0.5 | NC(CNC(=O)C1CCCc2ccccc21)c1ccc(C(=O)Nc2ccncc2)cc1 (stereo not drawn) [Compound 350, 1,2,3,4-Tetrahydro-naphthalene-1-carboxylic acid {2-amino-2-[4-(pyridin-4-ylcarbamoyl)-phenyl]-ethyl}-amide]
11 | 0.05 to 0.5 | NC(CNC(=O)C1CCc2ccccc21)c1ccc(C(=O)Nc2ccncc2)cc1 (stereo not drawn) [Compound 351, Indan-1-carboxylic acid {2-amino-2-[4-(pyridin-4-ylcarbamoyl)-phenyl]-ethyl}-amide]
12 | < 0.05 | NC(CNC(=O)C1CCc2cc(Cl)ccc21)c1ccc(C(=O)Nc2ccncc2)cc1 (stereo not drawn) [Compound 352, 5-Chloro-indan-1-carboxylic acid {2-amino-2-[4-(pyridin-4-ylcarbamoyl)-phenyl]-ethyl}-amide]
13 | 0.05 to 0.5 | NC(CNC(=O)C1CCc2ccc(F)cc21)c1ccc(C(=O)Nc2ccncc2)cc1 (stereo not drawn) [Compound 354, 6-Fluoro-indan-1-carboxylic acid {2-amino-2-[4-(pyridin-4-ylcarbamoyl)-phenyl]-ethyl}-amide]

Second part, the compound before the results:

Row | Compound | IC50 [µM]
14 | 4-(1-Amino-2-{[1-(4-chloro-phenyl)- cyclobutanecarbonyl]-amino}-ethyl)- N-pyridin-4-yl-benzamide [Compound 337] | 0.05 to 0.5
15 | 4-(1-Amino-2-{[1-(4-fluoro-phenyl)- cyclobutanecarbonyl]-amino}-ethyl)- N-pyridin-4-yl-benzamide [Compound 338] | < 0.05
16 | 4-(1-Amino-2-{[1-(4-fluoro-phenyl)- cyclohexanecarbonyl]-amino}-ethyl)- N-pyridin-4-yl-benzamide [Compound 343] | < 0.05
17 | 7-Fluoro-indan-1-carboxylic acid {2- amino-2-[4-(pyridin-4-ylcarbamoyl)- phenyl]-ethyl}-amide [Compound 353] | 0.05 to 0.5
18 | CCC(CC)(C(=O)NCC(N)c1ccc(C(=O)Nc2ccncc2)cc1)c1ccccc1 (stereo not drawn) [Compound 334, 4-[1-Amino-2-(2-ethyl-2-phenyl-butyrylamino)-ethyl]-N-pyridin-4-yl-benzamide] | < 0.05
19 | CC(C)(C(=O)NCC(N)c1ccc(C(=O)Nc2ccncc2)cc1)c1ccc(F)c(F)c1 (stereo not drawn) [Compound 376, 4-{1-Amino-2-[2-(3,4-difluoro-phenyl)-2-methyl-propionylamino]-ethyl}-N-pyridin-4-yl-benzamide] | < 0.05

same assay, conditions: compounds of Formula XIV, Table 3; read-out: IC50 μM PKCε

Row | IC50 [µM] | Compound
20 | 0.05 to 0.5 | NC(CC(=O)NC1CCOc2ccccc21)c1ccc(C(=O)Nc2ccncc2)cc1 (stereo not drawn) [Compound 359, 4-[1-Amino-2-(chroman-4-ylcarbamoyl)-ethyl]-N-pyridin-4-yl-benzamide]
21 | 0.05 to 0.5 | NC(CC(=O)NC1CCSc2ccccc21)c1ccc(C(=O)Nc2ccncc2)cc1 (stereo not drawn) [Compound 360, 4-[1-Amino-2-(thiochroman-4-ylcarbamoyl)-ethyl]-N-pyridin-4-yl-benzamide]
22 | 0.05 to 0.5 | NC(CC(=O)NC1COc2ccccc21)c1ccc(C(=O)Nc2ccncc2)cc1 (stereo not drawn) [Compound 366, 4-[1-Amino-2-(2,3-dihydro-benzofuran-3-ylcarbamoyl)-ethyl]-N-pyridin-4-yl-benzamide]
23 | 0.05 to 0.5 | NC(CC(=O)NC1CCCc2sccc21)c1ccc(C(=O)Nc2ccncc2)cc1 (stereo not drawn) [Compound 367, 4-[1-Amino-2-(4,5,6,7-tetrahydro-benzo[b]thiophen-4-ylcarbamoyl)-ethyl]-N-pyridin-4-yl-benzamide]
24 | 0.5 to 5 | NC(CC(=O)NC(c1ccc(Cl)cc1)C1CC1)c1ccc(C(=O)Nc2ccncc2)cc1 (stereo not drawn) [Compound 368, 4-(1-Amino-2-{[(4-chloro-phenyl)-cyclopropyl-methyl]-carbamoyl}-ethyl)-N-pyridin-4-yl-benzamide]
25 | 0.05 to 0.5 | NC(CC(=O)NC(c1ccc(F)cc1)C1CCC1)c1ccc(C(=O)Nc2ccncc2)cc1 (stereo not drawn) [Compound 369, 4-(1-Amino-2-{[cyclobutyl-(4-fluoro-phenyl)-methyl]-carbamoyl}-ethyl)-N-pyridin-4-yl-benzamide]

Row | Compound | IC50 [µM]
26 | 4-[1-Amino-2-(5-fluoro- indan-1-ylcarbamoyl)-ethyl]- N-pyridin-4-yl-benzamide [Compound 361] | 0.05 to 0.5
27 | 4-[1-Amino-2-(6-fluoro- indan-1-ylcarbamoyl)-ethyl]- N-pyridin-4-yl-benzamide [Compound 362] | 0.05 to 0.5

Reference: patent US20100168102A9, “Amide Derivatives as Kinase Inhibitors” (Devgen NV, priority 2005, published 2010)
